Assay results taken from a compilation of properties of binary mixtures (doi:10.1007/s10953-022-01241-4).

Assay: xn = mol fraction of the nth substance listed
Settings: 100 kPa

C[P+](c1ccccc1)(c1ccccc1)c1ccccc1.[Br-] + OCCO
viscosity [mPa·s]
Settings	293.15 K	298.15 K	303.15 K	308.15 K	313.15 K	318.15 K	323.15 K
x1 = 0.1	45.5	–	27.4	22.37	–	15.1	12.6
x1 = 0.13	56.5	43.3	33.8	27.1	21.86	18.05	14.94
x1 = 0.17	74.7	55.7	43.5	34.5	27.3	21.01	17.81
x1 = 0.2	100.6	74.5	56.2	43.3	34	27.2	21.91
x1 = 0.25	148.7	106.7	78.9	60	46.4	36.4	29
x1 = 0.33	225	158	–	85.5	–	50.5	39.6
